# Assay results from the OPERA property sets (Mansouri et al. 2018).
# Conditions: not given
SMILES,ready biodegradability,boiling point [°C],log10 vapour pressure (mmHg),melting point [°C],log10 Henry constant (atm·m³/mol),log10 Koc (L/kg),log10 biodegradation half-life (days),log10 Koa
CC(C)(C)c1cc(CCC(=O)OCC(COC(=O)CCc2cc(C(C)(C)C)c(O)c(C(C)(C)C)c2)(COC(=O)CCc2cc(C(C)(C)C)c(O)c(C(C)(C)C)c2)COC(=O)CCc2cc(C(C)(C)C)c(O)c(C(C)(C)C)c2)cc(C(C)(C)C)c1O,not readily biodegradable,,,,,,,
CCOC(N)=O,not readily biodegradable,185,-0.582,49,,,,
ON=Cc1ccccc1O,,,,57,,,,
COc1c(Cl)c(Cl)c([N+](=O)[O-])c(Cl)c1Cl,,,,103,,,,
ClCC(Cl)(Cl)CCl,not readily biodegradable,165,0.484,,,,,
NC(=O)C(F)(F)F,,162,,72.5,,,,
OC[C@H]1O[C@@H](n2cnc3cncnc32)[C@H](O)[C@@H]1O,,,,181,,,,
Cc1ccccc1OC(=O)Oc1ccccc1C,,,,60,,,,
Nc1c([N+](=O)[O-])cccc1[N+](=O)[O-],,,,142,,,,
CCCCCCC(C)=O,readily biodegradable,172,0.13,-16,-3.73,,,
Nc1ccc(C(=O)N[C@@H](CCC(=O)O)C(=O)O)cc1,,,,173,,,,
COc1cc2c(c(O)c1OC)CNCC2,,,,188,,,,
Cc1ccc(/N=C/N(C)/C=N/c2ccc(C)cc2C)c(C)c1,,,-5.7,86,-5.01,3,,
CC(=O)C(C)CO (stereo unspecified),,,-0.646,,,,,
COC(=O)C1(S(=O)(=O)c2ccc(C)cc2)CC1,,,,97.2,,,,
CC1(C)C=CC=C(C(=O)O)C=C1,,,,88.5,,,,
O=c1oc2ccccc2c(O)c1C1CC(c2ccc(-c3ccccc3)cc2)Cc2ccccc21 (stereo unspecified),,,,216,,,,
O=Cc1c(F)c(F)c(F)c(F)c1F,,167,,20,,,,
O=Cc1ccccc1Br,,230,,21.5,,,,
CC=Cc1ccc(OCC)c(O)c1,,,,87,,,,
CCCC#CCCC,,132,0.985,-101,,,,
Clc1ccc(Oc2ccc(Cl)cc2)cc1,,313,-3.3,30,,,,
O=C(O)CCCCCC(=O)O,,342,-7.05,106,,,,
CN(C)C(=O)Nc1cccc(F)c1,,,,,,1.73,,
C1CCC2NC2C1 (stereo unspecified),,150,,21,,,,
Cc1c[nH]c2ccccc12,,266,-2.26,97.5,,,,
O=C1CCCc2ccccc21,,,,8,,,,
CCOP(=S)(OCC)SCCS(=O)(=O)CC,,,,,,3.22,,

SMILES,ready biodegradability,boiling point [°C],log10 vapour pressure (mmHg),melting point [°C],log10 Henry constant (atm·m³/mol),log10 Koc (L/kg),log10 biodegradation half-life (days),log10 Koa
CCc1ccc(C)c(C)c1,,190,-0.126,-66.9,,,0.699,
C[C@H]1[C@H](C)CC[C@]2(C)CC[C@]3(C)C(=CC[C@@H]4[C@@]5(C)CC[C@H](O)C(C)(C)[C@@H]5CC[C@]43C)[C@H]12,,,,186,,,,
CCC(=O)c1ccc2c(c1)N(CCCN(C)C)c1ccccc1S2,,,,69.5,,,,
CC(CC(=O)O)CC(=O)O,,,,87,,,,
CCCN1C[C@H](CSC)C[C@@H]2c3cccc4[nH]cc(c34)C[C@H]21,,,,208,,,,
C[C@H]1C[C@H]2[C@@H]3CCC4=CC(=O)C=C[C@]4(C)[C@H]3C(=O)C[C@]2(C)[C@@]1(O)C(=O)CO,,,,202,,,,
c1ccc(-c2ccc3ncccc3c2)cc1,,,,110,,,,
O=[N+]([O-])c1ccc2c(c1)oc1ccccc12,,,,182,,,,
c1cncc([C@@H]2CCCN2)c1,not readily biodegradable,270,,,,,,
CC(C)(C)CO,,114,1.2,52.5,,,,
Fc1ccc(NC(=S)Nc2cc(Cl)cc(Cl)c2)cc1,,,,164,,,,
Cc1cc(=O)oc2cc(O)ccc12,,,,196,,,,
Nc1cc(Cl)cc(C(=O)O)c1Cl,not readily biodegradable,312,,200,,1.48,,
CCN(CC)C(=O)c1cccc(C)c1,not readily biodegradable,290,-2.7,-45,,,,
CCCCCCCCCCCCN1CC(C(=O)OC)CC1=O (stereo unspecified),,,,27.5,,,,
COC(=O)CS,,148,0.477,,,,,
Cc1ccc(N)c(Br)c1,,240,,26,,,,
CC(C)(C)C1CCCCC1,,172,0.368,-41.2,,,,
COc1ccc(CC(=O)O)cc1,,,,87,,,,
Nc1ccncn1,,,,155,,,,
CC1c2ccccc2-c2ccccc21,,,,46.5,,,,
CNC,readily biodegradable,6.8,3.18,,-4.75,,,2
CCCCCCCCCC(=O)Cl,,,,-34.5,,,,
CC=C1CC2C=CC1C2 (stereo unspecified),not readily biodegradable,146,,,,,,
CC1CCS1 (stereo unspecified),,107,,,,,,
CCCCCCC(O)CCCCC (stereo unspecified),,225,,30,,,,
C1=CC2C=CC1C2,,89.5,,-19.1,,,,

# Same assay, conditions: fish
SMILES,log10 BCF,log10 biotransformation half-life (days)
c1ccc(Nc2ccc3ccccc3c2)cc1,2.37,-0.41
Nc1cccc(N)c1,0.81,
CC(C)(C)c1cc(C(C)(C)C)c(O)c(C(C)(C)C)c1,4.14,1.81
COP(=S)(OC)Oc1cc(Cl)c(I)cc1Cl,3.62,0.86
ClCC(Cl)(Cl)CCl,1.57,-0.28
CCOP(=S)(OCC)SCCS(=O)(=O)CC,0.7,-0.67
CCN(CC)C(=O)c1cccc(C)c1,0.38,
CC=C1CC2C=CC1C2 (stereo unspecified),2.04,-0.56
